Measured values taken from BigSolDB 2.1.

O=C1CCc2cc(O)ccc2N1
solubility (mole fraction)
Conditions	in THF	in acetonitrile	in ethanol	in ethyl acetate	in isobutanol	in isopropanol	in methanol	in methyl acetate	in n-butanol	in n-propanol
278.15 K	0.00248	0.000292	0.00214	0.000666	0.00114	0.00186	0.00224	0.00155	0.00181	0.00173
283.15 K	0.00277	0.000345	0.00242	0.000723	0.00134	0.00226	0.0027	0.00172	0.00201	0.00202
288.15 K	0.00307	0.000403	0.00281	0.000792	0.00162	0.0026	0.00309	0.00188	0.00232	0.00236
293.15 K	0.00346	0.00048	0.00324	0.00086	0.00192	0.003	0.00356	0.00209	0.00269	0.0027
298.15 K	0.00383	0.000576	0.00373	0.000927	0.00229	0.00346	0.00412	0.00231	0.00309	0.00314
303.15 K	0.00424	0.000668	0.00431	0.000992	0.00268	0.00395	0.0048	0.00257	0.00357	0.00364
308.15 K	0.00473	0.000784	0.00496	0.00108	0.00316	0.00471	0.00551	0.00287	0.00409	0.00419
313.15 K	0.00526	0.000887	0.00574	0.00115	0.00378	0.0055	0.00648	0.00316	0.00473	0.00482
318.15 K	0.00591	0.00102	0.00664	0.00122	0.00427	0.00631	0.00745	0.00352	0.00543	0.00554
323.15 K	0.00651	0.00118	0.00761	0.00131	0.00493	0.00721	0.00838	0.00391	0.00623	0.00641
